The text below walks through data of publication PMC4432651, “Dynamic interplay between catalytic and lectin domains of GalNAc-transferases modulates protein O-glycosylation” (Nature Communications, 2015).

Where a SMILES comes first, the peptide text is derived from it. The star is where a group is joined. αGalNAc = CC(=O)N[C@@H]1[C@@H](O)[C@@H](O)[C@@H](CO)O[C@@H]1*

The target of this test is T1, GalNAc-T2 (Homo sapiens, UniProt Q10471).
T1 construct: made in house
As to the kind of experiment: SAXS with Ensemble Optimization Method: GalNAc-T2 conformations/oligomers with ligands. The conditions noted are these: for Rg from p(r) (GNOM) / Dmax / Rg (Guinier): GalNAc-T2 5 mg/ml, 25 mM TRIS pH 7.5, 10 mM MnCl2, 10 °C; for Dmax: maximum intramolecular distance, GNOM. The protocol: SAXS measurements were performed at the European Molecular Biology Laboratory on the storage ring PETRA-III (DESY-Hamburg) on the P12 beamline equipped with a robotic sample changer and a PILATUS-2M. The analysis of the SAXS data was performed by using the EOM[31]. Additional details are in Supplementary Methods. […]
Small-angle X-ray scattering (SAXS) and data analysis
All experiments were performed in a buffer consisting of 25 mM TRIS pH 7.5, 10 mM MnCl2. The first set of experiments contained three different protein concentrations: 10 mg/ml (180 µM), 5 mg/ml (90 µM), 2.5 mg/ml (45 µM) and 1 […]
mg/ml (18 µM). The protein was measured alone and in the presence of ten times molar excess of UDP, UDP-GalNAc, UDP-EA2 peptide, MUC5AC-13, UDP-MUC5AC-13, MUC5AC, and UDP-MUC5AC. The second set of experiments was carried out with the protein concentration fixed at 5 mg/ml, and increasing concentrations of UDP (450 µM, 900 µM, 1.8 mM, 4.5 mM and 9 mM). The concentration of MUC5AC-13 was also changed as follows: 1 mM, 5 mM and 7.5 […]
Synchrotron SAXS measurements were performed at the European Molecular
Biology Laboratory (EMBL) on the storage ring PETRA-III (DESY-Hamburg) on the P12 beamline equipped with a robotic sample changer and a PILATUS-2M. The sample-detector distance was 3.1 m. The scattering intensity, I(s), was recorded at 10 °C in a momentum transfer range of 0.007<s<0.444 Å -1, where s = (4πsinθ )/λ , 2θ is the scattering angle, and λ = 1.24 Å is the X-ray wavelength. Twenty consecutive 0.05 second measurements were performed for protein samples and buffers to monitor for radiation damage that were subsequently averaged (no systematic radiation effects were observed). Buffer scattering profiles were subtracted from the sample ones using standard procedures 8. The values of the forward scattering, I(0), and radii of gyration, Rg, were calculated from the experimental SAXS patterns using Guinier’s approximation (Supplementary Fig. 4 and 5), I(s) = I(0)exp(-s2Rg2/3), which is valid in the range sRg < 1.3.
Structural analysis of the SAXS data was performed using the Ensemble Optimization Method (EOM)9. A pool of 10,000 monomeric structures of GalNac-T2 was constructed with the program RanCh9 by connecting three-dimensional structures of the catalytic and the lectin domains, extracted from the crystallographic structure 2FFU, with a flexible linker of 12 residues with random coil conformations. To […]
properly describe the data, these monomeric ensembles were enriched with 100 equivalent curves corresponding to one dimeric arrangement. As we tested three dimers, we built three different ensembles with the same 10,000 monomeric conformations and 100 copies of each one of the dimers. The three different dimers used for SAXS are shown in Supplementary Fig. 3c and correspond to three different crystal structures obtained under different conditions.
The scattering profiles of all members of the pool were computed with the program CRYSOL using standard parameters10. The pool of structures/profiles was submitted to the genetic algorithm (GA) with the aim to select a subensemble of 50 structures/curves with the capacity to collectively describe the experimental SAXS […]
was repeated 200 times starting from different randomly selected subensembles, and the resulting solutions were analysed together. The same pool was used to describe all the measured data. Results were quantitatively analysed by displaying the Rg distributions of the selected ensembles and the relative population of monomeric and dimeric species.
Three different dimeric arrangements were introduced individually in the pool. In all three cases the dimers display similar contacts between the lectin domains and the lectin domain of one monomer with the catalytic domain of a second monomer (Supplementary Fig. 3c). We can distinguish the crystallographic dimers by the buried area parameter inferred from the PISA server. The dimers present in the crystal structure of GalNAc-T2-UDP complex (PDB entry 2FFV) are the most compact ones […]

Setting [1] is: ligand molar ratio GalNAc-T2:ligand 1:10.
The mark [2] stands for this setting: ligand molar ratio GalNAc-T2:ligand 1:20.

T1 sequence (Q10471 75-571 limits assumed): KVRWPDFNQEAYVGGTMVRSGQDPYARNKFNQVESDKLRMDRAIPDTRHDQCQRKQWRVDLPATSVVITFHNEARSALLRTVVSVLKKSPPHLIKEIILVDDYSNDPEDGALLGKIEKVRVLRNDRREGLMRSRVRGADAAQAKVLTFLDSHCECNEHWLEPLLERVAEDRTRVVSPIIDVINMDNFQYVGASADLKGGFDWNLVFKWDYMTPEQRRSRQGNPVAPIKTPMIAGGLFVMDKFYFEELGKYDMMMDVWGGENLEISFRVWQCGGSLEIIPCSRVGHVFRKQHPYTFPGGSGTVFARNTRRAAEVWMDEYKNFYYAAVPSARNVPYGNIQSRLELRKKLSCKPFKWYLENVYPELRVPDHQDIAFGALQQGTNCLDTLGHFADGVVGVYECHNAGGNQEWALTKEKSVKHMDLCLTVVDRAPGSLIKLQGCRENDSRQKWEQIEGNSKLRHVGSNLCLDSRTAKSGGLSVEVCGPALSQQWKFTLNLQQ

Take `CC(=O)NCC(=O)N[C@H](C(=O)N[C@H](C(=O)N1CCC[C@H]1C(=O)N[C@@H](CO)C(=O)N1CCC[C@H]1C(=O)N[C@H](C(=O)N1CCC[C@H]1C(=O)N[C@H](C(=O)N[C@H](C(=O)N[C@@H](CO)C(=O)N[C@H](C(=O)N[C@H](C(=O)N[C@@H](CO)C(=O)N[C@@H](C)C(N)=O)[C@@H](C)O[C@H]1O[C@H](CO)[C@H](O)[C@H](O)[C@H]1NC(C)=O)[C@@H](C)O)[C@@H](C)O)[C@@H](C)O)C(C)C)[C@@H](C)O)[C@@H](C)O` [MUC5AC-13] (Ac-GTTPSPVPTTSTT(αGalNAc)SA-NH2; N-terminus assumed): the “effect on GalNAc-T2 dimers (in words)” value (GalNAc-T2 fixed at 5 mg ml−1, increasing concentrations of peptide) is recorded as “dimers almost disappear from solution”. Besides, the “Rg from p(r) (GNOM)” value by setting is: (ligand molar ratio 1:10) 30.6 Å; (ligand molar ratio 1:20) 29.2 Å; (peptide + UDP (1:10)) 31.7 Å. Also, the Dmax reads like this: (ligand molar ratio 1:10) 112 Å; (ligand molar ratio 1:20) 102 Å; (peptide + UDP (1:10)) 112 Å. In addition, the “Rg (Guinier)” value came to 30.2±0.2 Å under setting [1], 29.1±0.1 Å under setting [2] and 30.7±0.4 Å (peptide + UDP (1:10)).

In the case of `O=c1ccn([C@@H]2O[C@H](COP(=O)(O)OP(=O)(O)O)[C@@H](O)[C@H]2O)c(=O)[nH]1` [UDP, uridine diphosphate, reference compound], the “Rg from p(r) (GNOM)” value was determined as 34.3 Å (ligand molar ratio 1:5), 35.0 Å (ligand molar ratio 1:10), 34.5 Å (ligand molar ratio 1:20) and 36.0 Å (ligand molar ratio 1:50). For the same compound, the Dmax was 121 Å (ligand molar ratio 1:5), 123 Å (ligand molar ratio 1:10), 122 Å (ligand molar ratio 1:20) and 129 Å (ligand molar ratio 1:50). For the same compound, the “Rg (Guinier)” value runs as follows: (ligand molar ratio GalNAc-T2:ligand 1:5) 32.7±0.3 Å; under setting [1], 34.4±0.3 Å; under setting [2], 34.0±0.2 Å; (ligand molar ratio GalNAc-T2:ligand 1:50) 36.0±0.3 Å.
